# Assay results taken from US20250387419A1, “PARP INHIBITOR-RESISTANT PATIENT TREATED WITH TH-302” (ASCENTAWITS PHARMACEUTICALS, LTD., priority 2021, published 2025).
# “Also recorded” adds a separate entry of the source.
# Experiments:
# [1] = Safety (body weight) in Capan-1 CDX model (3.1); type: in vivo; set-up: Body weight: unit: g; settings: for Body weight / Body weight change percentage: olaparib 100 mg/kg p.o. QD×30, TH-302 75 mg/kg i.v. QW×3
# Experimental: Each nude female BALB/c mouse was subcutaneously inoculated at a lower portion of the right back with 5×10^5 Capan-1 cells resuspended in a 1:1 mixture of PBS and matrigel (0.1 ml per mouse). A total of 64 female mice were inoculated. The inoculation was conducted on Jun. […] The test drug olaparib group was orally and intragastrically administered, once daily for a total of 30 days. Efficacy was evaluated based on relative tumor growth inhibition (TGI) rates (%), and safety was evaluated based on body weight changes and deaths of the animals.
# [2] = Safety (body weight) in Capan-1 CDX model (3.2); type: in vivo; settings: Group 2: 100 mg/kg p.o. QD×30
# Experimental: Protocol: Nude BALB/c mice were subcutaneously inoculated with human pancreatic cancer Capan-1 cells, establishing a human pancreatic cancer subcutaneous xenograft model. The mice were divided into 7 groups, 6 in each group: 100 mg/kg of the test drug olaparib as a monotherapy (Group 2); 50 mg/kg of TH-302 as a monotherapy (Group 3, QD); 100 mg/kg of TH-302 as a monotherapy (Group 4); 50 mg/kg of TH-302 as a monotherapy (Group 5, QW); 25 mg/kg of TH-302 as a monotherapy (Group 6); 25 mg/kg TH-302 in combination therapy with 100 mg/kg olaparib (Group 7); and 10% anhydrous ethanol+10% polyoxyethylene (35) castor oil+80% glucose injection solution D5W (pH 7.4) as a vehicle control (Group 1). The vehicle control group and the TH-302 test groups were all administered through tail vein injection. The 50 mg/kg TH-302 monotherapy group (Group 3, QD) was administered once daily for 3 consecutive days. After rest for 4 days and two weeks, the mice were again administered daily for another 3 consecutive days. TH-302 in all the 100 mg/kg (Group 4, QW), 50 mg/kg (Group 5, QW) and 25 mg/kg (Group 6, QW) TH-302 monotherapy groups and 25 mg/kg TH-302+100 mg/kg olaparib combination therapy group (Group 7) was administered once weekly for a total of three weeks. The test drug olaparib in all the groups was orally and intragastrically administered once daily for totally 30 days. Routes of administration, doses and regimens for the human pancreatic cancer Capan-1 animal model are specifically summarized in Table 12.
# Tumor growth of the treatment and control groups on different days in the experiment were recorded and shown in Table 13, and corresponding tumor volume growth curves of the mice in respective groups are shown in FIG. 7. Efficacy evaluation was conducted based on relative tumor proliferation rates and relative tumor growth inhibition rates, and the results of efficacy analysis are summarized in Table 14. Body weight changes of the treatment and control groups after administration were recorded to investigate safety of the groups in the human pancreatic cancer Capan-1 subcutaneous model. Body weight change rates of the mice on Day 43 are shown in Table 15, and curves showing body weights of the treatment groups over time are plotted in FIG. 8.
# [3] = Safety (body weight) in LU6429 PDX model; type: in vivo, mouse; settings: Group 2: 50 mg/kg p.o. QD×28
# Experimental: Protocol: Nude female Balb/c mice were subcutaneously inoculated with HuPrime® lung cancer LU6429 tumor tissue, establishing a human lung cancer subcutaneous xenograft tumor model. The mice were divided into 6 groups, 6 in each group: 50 mg/kg of the test drug olaparib as a monotherapy (Group 02); 80 mg/kg TH-302 as a monotherapy (Group 03); 40 mg/kg TH-302 as a monotherapy (Group 04); 20 mg/kg TH-302 as a monotherapy (Group 05); 40 mg/kg TH-302 in combination therapy with 50 mg/kg olaparib (Group 06); and a glucose injection solution as a vehicle control (Group 01). The vehicle control group and the TH-302 treatment groups were all administered through tail vein, once weekly for a total of 3 weeks. Olaparib was intragastrically administered once daily for totally 28 days. Routes of administration, doses and regimens for the HuPrime® lung cancer LU6429 animal model are specifically summarized in Table 16.
# Tumor growth of the treatment and control groups on different days in the experiment were recorded and shown in Table 17, and corresponding tumor volume growth curves of the mice in respective groups are shown in FIG. 9. Efficacy evaluation was carried out based on relative tumor proliferation rates and relative tumor growth inhibition rates, and the results of efficacy analysis are summarized in Table 18. Body weight changes of the treatment and control groups after administration were recorded to investigate safety of the groups in the HuPrime® lung cancer LU6429 subcutaneous model. Body weight change rates of the mice on Day 25 are shown in Table 19, and curves showing body weights of the treatment groups over time are plotted in FIG. 10.
structure (smiles),measurement,setting,value
O=C(c1cc(Cc2n[nH]c(=O)c3ccccc23)ccc1F)N1CCN(C(=O)C2CC2)CC1 [olaparib],Body weight,[1]; Day 5,22.8
same,Body weight change percentage,[1]; Day 5,0.00%
same,Body weight,[1]; Day 6,22.5
same,Body weight change percentage,[1]; Day 6,−1.18%
same,Body weight,[1]; Day 7,22.6
same,Body weight change percentage,[1]; Day 7,−0.91%
same,Body weight,[1]; Day 8,22.7
same,Body weight change percentage,[1]; Day 8,−0.35%
same,Body weight,[1]; Day 9,22.6
same,Body weight change percentage,[1]; Day 9,−0.82%
same,Body weight,[1]; Day 10,23.0
same,Body weight change percentage,[1]; Day 10,1.04%
same,Body weight,[1]; Day 11,22.7
same,Body weight change percentage,[1]; Day 11,−0.25%
same,Body weight,[1]; Day 12,22.7
same,Body weight change percentage,[1]; Day 12,−0.61%
same,Body weight,[1]; Day 13,23.3
same,Body weight change percentage,[1]; Day 13,2.18%
same,Body weight,[1]; Day 14,23.2
same,Body weight change percentage,[1]; Day 14,1.87%
same,Body weight,[1]; Day 15,23.2
same,Body weight change percentage,[1]; Day 15,1.86%
same,Body weight,[1]; Day 16,23.3
same,Body weight change percentage,[1]; Day 16,2.16%
same,Body weight,[1]; Day 17,23.
same,Body weight change percentage,[1]; Day 17,1.43%
same,Body weight,[1]; Day 18,23.6
same,Body weight change percentage,[1]; Day 18,3.45%
same,Body weight,[1]; Day 19,23.5
same,Body weight change percentage,[1]; Day 19,3.00%
same,Body weight,[1]; Day 20,23.3
same,Body weight change percentage,[1]; Day 20,2.19%
same,Body weight,[1]; Day 21,23.4
same,Body weight change percentage,[1]; Day 21,2.68%
same,Body weight,[1]; Day 22,23.6
same,Body weight change percentage,[1]; Day 22,3.51%
same,Body weight,[1]; Day 23,23.8
same,Body weight change percentage,[1]; Day 23,4.38%
same,Body weight,[1]; Day 24,23.8
same,Body weight change percentage,[1]; Day 24,4.47%
same,Body weight,[1]; Day 25,23.7
same,Body weight change percentage,[1]; Day 25,3.80%
same,Body weight,[1]; Day 26,23.9
same,Body weight change percentage,[1]; Day 26,4.97%
same,Body weight,[1]; Day 27,24.0
same,Body weight change percentage,[1]; Day 27,5.39%
same,Body weight,[1]; Day 28,24.0
same,Body weight change percentage,[1]; Day 28,5.29%
same,Body weight,[1]; Day 29,23.7
same,Body weight change percentage,[1]; Day 29,4.05%
same,Body weight,[1]; Day 30,23.9
same,Body weight change percentage,[1]; Day 30,4.85%
same,Body weight,[1]; Day 31,24.5
same,Body weight change percentage,[1]; Day 31,7.24%
same,Body weight,[1]; Day 32,24.3
same,Body weight change percentage,[1]; Day 32,6.56%
same,Body weight,[1]; Day 33,24.4
same,Body weight change percentage,[1]; Day 33,6.92%
same,Body weight,[1]; Day 34,24.3
same,Body weight change percentage,[1]; Day 34,6.71%
same,Body weight,[1]; Day 35,24.5
same,Body weight change percentage,[1]; Day 35,7.26%
same,Body weight loss / tolerance,"[1]; olaparib 100 mg/kg, TH-302 75 mg/kg, combination 100 + 75 mg/kg",No significant body weight losses; also recorded: good tolerance
same,Average Body Weight g (x ± S),[2]; Day 6,21.9 ± 0.4 g
same,Average Body Weight g (x ± S),[2]; Day 43,24.2 ± 0.4 g
same,Body Weight Change Rate (%),[2]; Day 43,10.95% ± 2.07%
same,Average Body Weight g (x ± S),[3]; Day 0,20.8 ± 0.2 g
same,Average Body Weight g (x ± S),[3]; Day 25,24.0 ± 0.4 g
same,Body Weight Change Rate (%),[3]; Day 25,15.20% ± 2.31%
